Assay results: patent US9650340B2, “5-fluoro-N-(pyridin-2-yl)pyridin-2-amine derivatives containing a sulfoximine group” (BAYER PHARMA AKTIENGESELLSCHAFT, priority 2012, dated 2017)
pIC50: −log10 of the molar value.

Columns and labels:
[1] = test system: HeLa, human cervical tumour cells; assay: Proliferation assay, HeLa (crystal violet); format: cell-based; details: Homo sapiens, 96 h, 4 days, read-out: Inhibition of HeLa cell proliferation IC50
Description: Cultivated tumour cells (HeLa, human cervical tumour cells, ATCC CCL-2; NCI-H460, human non-small cell lung carcinoma cells, ATCC HTB-177; A2780, human ovarian carcinoma cells, ECACC #93112519; DU 145, hormone-independent human prostate carcinoma cells, ATCC HTB-81; HeLa-MaTu-ADR, multidrug-resistant human cervical carcinoma cells, EPO-GmbH Berlin; Caco-2, human colorectal carcinoma cells, ATCC HTB-37; B16F10, mouse melanoma cells, ATCC CRL-6475) were plated at a density of 5,000 cells/well (DU145, HeLa-MaTu-ADR), 3,000 cells/well (NCI-H460, HeLa), 2,500 cells/well (A2780), 1,500 cells/well (Caco-2), or 1,000 cells/well (B16F10) in a 96-well multititer plate in 200 μL of their respective growth medium supplemented 10% fetal calf serum. After 24 hours, the cells of one plate (zero-point plate) were stained with crystal violet (see below), while the medium of the other plates was replaced by fresh culture medium (200 μl), to which the test substances were added in various concentrations (0 μM, as well as in the range of 0.001-10 μM; the final concentration of the solvent dimethyl sulfoxide was 0.5%). The cells were incubated for 4 days in the presence of test substances. Cell proliferation was determined by staining the cells with crystal violet: the cells were fixed by adding 20 μl/measuring point of an 11% glutaric aldehyde solution for 15 minutes at room temperature. After three washing cycles of the fixed cells with water, the plates were dried at room temperature. The cells were stained by adding 100 μl/measuring point of a 0.1% crystal violet solution (pH 3.0). After three washing cycles of the stained cells with water, the plates were dried at room temperature. The dye was dissolved by adding 100 μl/measuring point of a 10% acetic acid solution. The extinction was determined by photometry at a wavelength of 595 nm. The change of cell number, in percent, was calculated by normalization of the measured values to the extinction values of the zero-point plate (=0%) and the extinction of the untreated (0 μm) cells (=100%). The IC50 values (inhibitory concentration at 50% of maximal effect) were determined by means of a 4 parameter fit. Non-adherent MOLM-13 human acute myeloid leukemia cells (DSMZ ACC 554) were seeded at a density of 5,000 cells/well in a 96-well multititer plate in 100 μL of growth medium supplemented 10% fetal calf serum. After 24 hours, cell viability of one plate (zero-point plate) was determined with the Cell Titre-Glo Luminescent Cell Viability Assay (Promega), while 50 μL of test compound containing medium was added to the wells of the other plates (final concentrations in the range of 0.001-10 μM and DMSO controls; the final concentration of the solvent dimethyl sulfoxide was 0.5%). Cell viability was assessed after 72-hour exposure with the Cell Titre-Glo Luminescent Cell Viability Assay (Promega).

CDK2/CycE = biological target: T1, CDK2/CycE (Homo sapiens, UniProt P24941); assay: CDK2/CycE kinase assay (TR-FRET, 10 μM ATP); format: biochemical; details: Method 2 (2a)
T1 construct: GST; purchased ProQinase GmbH (Freiburg, Germany); host or cells: insect cells (Sf9)
Source text: 2a. CDK2/CycE Kinase Assay:
CDK2/CycE-inhibitory activity of compounds of the present invention was quantified employing the CDK2/CycE TR-FRET assay as described in the following paragraphs:
Recombinant fusion proteins of GST and human CDK2 and of GST and human CycE, expressed in insect cells (Sf9) and purified by Glutathion-Sepharose affinity chromatography, were purchased from ProQinase GmbH (Freiburg, Germany). As substrate for the kinase reaction biotinylated peptide biotin-Ttds-[…] (C-terminus in amid form) was used which can be purchased e.g. form the company JERINI Peptide Technologies (Berlin, Germany).
For the assay 50 nl of a 100 fold concentrated solution of the test compound in DMSO was pipetted into a black low volume 384 well microtiter plate (Greiner Bio-One, Frickenhausen, Germany), 2 μl of a solution of CDK2/CycE in aqueous assay buffer [50 mM Tris/HCl pH 8.0, 10 mM MgCl2, 1.0 mM dithiothreitol, 0.1 mM sodium ortho-vanadate, 0.01% (v/v) Nonidet-P40 (Sigma)] were added and the mixture was incubated for 15 min at 22° C. to allow pre-binding of the test compounds to the enzyme before the start of the kinase reaction. Then the kinase reaction was started by the addition of 3 μl of a solution of adenosine-tri-phosphate (ATP, 16.7 μM=>final conc. in the 5 μl assay volume is 10 μM) and substrate (1.25 μM=>final conc. in the 5 μl assay volume is 0.75 μM) in assay buffer and the resulting mixture was incubated for a reaction time of 25 min at 22° C. The concentration of CDK2/CycE was adjusted depending of the activity of the enzyme lot and was chosen appropriate to have the assay in the linear range, typical concentrations were in the range of 130 ng/mL The reaction was stopped by the addition of 5 μl of a solution of TR-FRET detection reagents (0.2 μM streptavidine-XL665 [Cisbio Bioassays, Codolet, France] and 1 nM anti-RB(pSer807/pSer811)-antibody from BD Pharmingen [#558389] and 1.2 nM LANCE EU-W1024 labeled anti-mouse IgG antibody [Perkin-Elmer, product no. AD0077]) in an aqueous EDTA-solution (100 mM EDTA, 0.2% (w/v) bovine serum albumin in 100 mM HEPES/NaOH pH 7.0).
The resulting mixture was incubated 1 h at 22° C. to allow the formation of complex between the phosphorylated biotinylated peptide and the detection reagents. Subsequently the amount of phosphorylated substrate was evaluated by measurement of the resonance energy transfer from the Eu-chelate to the streptavidine-XL. Therefore, the fluorescence emissions at 620 nm and 665 nm after excitation at 350 nm was measured in a TR-FRET reader, e.g. a Rubystar (BMG Labtechnologies, Offenburg, Germany) or a Viewlux (Perkin-Elmer). The ratio of the emissions at 665 nm and at 622 nm was taken as the measure for the amount of phosphorylated substrate.

Compound	pIC50 [1]	pIC50 (CDK2/CycE)
COc1cc(F)ccc1-c1cc(Nc2cc(CS(C)(=N)=O)ccn2)ncc1F (racemic) [Example 1, (rac)-5-Fluoro-4-(4-fluoro-2-methoxyphenyl)-N-{4-[(S-methylsulfonimidoyl)methyl]pyridin-2-yl}pyridin-2-amine]	7.02	6.39
COc1cc(F)ccc1-c1cc(Nc2cc(CS(C)(=N)=O)cc(C)n2)ncc1F (racemic) [Example 4, (rac)-5-Fluoro-4-(4-fluoro-2-methoxyphenyl)-N-{6-methyl-4-[(S-methylsulfonimidoyl)methyl]pyridin-2-yl}pyridin-2-amine]	7.46	6.92
COc1cc(F)ccc1-c1cc(Nc2cc(CS(C)(=N)=O)c(Br)c(C)n2)ncc1F (racemic) [Example 5, (rac)-5-Bromo-N-[5-fluoro-4-(4-fluoro-2-methoxyphenyl)pyridin-2-yl]-6-methyl-4-[(S-methylsulfonimidoyl)methyl]pyridin-2-amine]	7.03	6.85
COc1cc(CS(C)(=N)=O)cc(Nc2cc(-c3ccc(F)cc3OC)c(F)cn2)n1 (racemic) [Example 6, (rac)-5-Fluoro-4-(4-fluoro-2-methoxyphenyl)-N-{6-methoxy-4-[(S-methylsulfonimidoyl)methyl]pyridin-2-yl}pyridin-2-amine]	7.68	8.40
COc1cc(F)ccc1-c1cc(Nc2cc(CS(C)(=N)=O)cc(Cl)n2)ncc1F (racemic) [Example 7, (rac)-N-{6-Chloro-4-[(S-methylsulfonimidoyl)methyl]pyridin-2-yl}-5-fluoro-4-(4-fluoro-2-methoxyphenyl)pyridin-2-amine]	7.49	7.36
COc1cc(F)ccc1-c1cc(Nc2cc(CS(=N)(=O)CCO)ccn2)ncc1F (racemic) [Example 8, (rac)-2-{S-[(2-{[5-Fluoro-4-(4-fluoro-2-methoxyphenyl)pyridin-2-yl]amino}pyridin-4-yl)methyl]sulfonimidoyl}ethanol]	6.85	6.37
COc1cc(F)ccc1-c1cc(Nc2cc(CS(=N)(=O)CCN)ccn2)ncc1F (racemic) [Example 9, (rac)-N-(4-{[S-(2-Aminoethyl)sulfonimidoyl]methyl}pyridin-2-yl)-5-fluoro-4-(4-fluoro-2-methoxyphenyl)pyridin-2-amine]	6.39	6.62
CCOC(=O)N=S(C)(=O)Cc1ccnc(Nc2cc(-c3ccc(F)cc3OC)c(F)cn2)c1 (racemic) [Example 11, (rac)-Ethyl{[(2-{[5-fluoro-4-(4-fluoro-2-methoxyphenyl)pyridin-2-yl]amino}pyridin-4-yl)methyl](methyl)oxido-λ^6-sulfanylidene}carbamate]	7.14	6.77
CCNC(=O)N=S(C)(=O)Cc1ccnc(Nc2cc(-c3ccc(F)cc3OC)c(F)cn2)c1 (racemic) [Example 12, (rac)-1-Ethyl-3-{[(2-{[5-fluoro-4-(4-fluoro-2-methoxyphenyl)pyridin-2-yl]amino}pyridin-4-yl)methyl](methyl)oxido-λ^6-sulfanylidene}urea]	7.47	6.85
COc1cc(F)ccc1-c1cc(Nc2cc(CS(C)(=O)=NC(C)=O)ccn2)ncc1F (racemic) [Example 13, (rac)-N-{[(2-{[5-Fluoro-4-(4-fluoro-2-methoxyphenyl)pyridin-2-yl]amino}pyridin-4-yl)methyl](methyl)oxido-λ^6-sulfanylidene}acetamide]	7.00	6.89
CCOC(=O)N=S(C)(=O)Cc1cc(Nc2cc(-c3ccc(F)cc3OC)c(F)cn2)nc(OC)c1 (racemic) [Example 15, (rac)-ethyl{[(2-{[5-fluoro-4-(4-fluoro-2-methoxyphenyl)pyridin-2-yl]amino}-6-methoxypyridin-4-yl)methyl](methyl)oxido-λ^6-sulfanylidene}carbamate]	7.40	8.00
COc1cc(F)ccc1-c1cc(Nc2cc(CS(C)(=N)=O)cc(F)n2)ncc1F (racemic) [Example 17, (rac)-5-Fluoro-4-(4-fluoro-2-methoxyphenyl)-N-{6-fluoro-4-[(S-methylsulfonimidoyl)methyl]pyridin-2-yl}pyridin-2-amine]	7.34	7.31
COc1cc(F)ccc1-c1cc(Nc2cc(CS(C)(=O)=NC(=O)C(F)(F)F)cc(F)n2)ncc1F (racemic) [Example 18, (rac)-2,2,2-Trifluoro-N-{[(2-fluoro-6-{[5-fluoro-4-(4-fluoro-2-methoxyphenyl)pyridin-2-yl]amino}pyridin-4-yl)methyl](methyl)oxido-λ^6-sulfanylidene}acetamide]	7.21	7.41
COc1cc(F)ccc1-c1cc(Nc2cc(CS(C)(=N)=O)cc(C(F)(F)F)n2)ncc1F (racemic) [Example 21, (rac)-5-Fluoro-4-(4-fluoro-2-methoxyphenyl)-N-{4-[(S-methylsulfonimidoyl)methyl]-6-(trifluoromethyl)pyridin-2-yl}pyridin-2-amine]	7.54	7.96
CCOc1cc(F)ccc1-c1cc(Nc2cc(CS(C)(=N)=O)cc(F)n2)ncc1F (racemic) [Example 26, (rac)-4-(2-Ethoxy-4-fluorophenyl)-5-fluoro-N-{6-fluoro-4-[(S-methylsulfonimidoyl)methyl]pyridin-2-yl}pyridin-2-amine]	7.37	6.96
CCOc1cc(F)ccc1-c1cc(Nc2cc(CS(C)(=O)=NC(=O)C(F)(F)F)cc(F)n2)ncc1F (racemic) [Example 27, (rac)-N-{[(2-{[4-(2-Ethoxy-4-fluoro-phenyl)-5-fluoropyridin-2-yl]amino}-6-fluoropyridin-4-yl)methyl]-(methyl)oxido-λ^6-sulfanylidene}-2,2,2-trifluoroacetamide]	7.00	5.92
COc1cc(F)ccc1-c1cc(Nc2cc(CS(C)(=N)=O)cc(F)n2)ncc1F (single isomer, unassigned; (+)) [Example 19, (+)-5-Fluoro-4-(4-fluoro-2-methoxyphenyl)-N-{6-fluoro-4-[(S-methylsulfonimidoyl)methyl]pyridin-2-yl}pyridin-2-amine]	–	7.03
